26 compounds from patent US8530490B2, “Uracil compound or salt thereof having human deoxyuridine triphosphatase inhibitory activity” (Taiho Pharmaceutical Co., Ltd., priority 2008, dated 2013) can be followed below.

As a reminder, the pIC50 is the negative decadic logarithm of the IC50, by convention in mol/L. Higher therefore signals a low IC50.

In this test the target is human dUTPase (Homo sapiens (Human), UniProt P33316). Briefly: Human dUTPase inhibitory effect: production of [5-3H]dUMP from [5-3H]dUTP, measured by HPLC with flow scintillation. To be noted: [5-3H]dUMP production from [5-3H]dUTP, 37° C., 15 minutes. The test is classed as biochemical. The protocol:
The inhibitory activity of the compound of the present invention against human dUTPase was determined by measuring the production of [5-^3H]deoxyuridine monophosphate (hereinafter, referred to as [5-^3H]dUMP) from [5-^3H]deoxyuridine triphosphate (hereinafter, referred to as [5-^3H]dUTP) according to a method shown below.
Specifically, 0.2 mL in total of a solution containing 0.02 mL of 1 μM dUTP (including 588 Bq/mL [5-3H]dUTP), 0.05 mL of a 0.2 M Tris buffer solution (pH 7.4), 0.05 mL of 16 mM magnesium chloride, 0.02 mL of 20 mM 2-mercaptoethanol, 0.02 mL of a 1% aqueous solution of fetal bovine serum-derived albumin, 0.02 mL of varying concentrations of test compound solutions or pure water as a control, and 0.02 mL of a solution of human dUTPase (expressed using E. coli and purified) was reacted at 37° C. for 15 minutes. Immediately after the reaction, the solution was heated at 100° C. for 1 minute to terminate the reaction, followed by centrifugation at 15000 rpm for 2 minutes. An aliquot (150 μL) of the supernatant thus obtained by centrifugation was analyzed using an Atlantis dC18 column (manufactured by Waters Corp., 4.6×250 mm) and a high-performance liquid chromatograph (manufactured by Shimadzu Corp., Prominence). Elution was performed at a flow rate of 0.8 mL/min for 30 minutes by a concentration gradient from a 4:6 mixed solution of a mobile phase A (10 mM potassium dihydrogen phosphate (pH 6.7), 10 mM tetrabutylammonium, and 0.25% methanol) and a mobile phase B (50 mM potassium dihydrogen phosphate (pH 6.7), 5.6 mM tetrabutylammonium, and 30% methanol) to the mobile phase B. The eluate was mixed with a scintillator (manufactured by PerkinElmer Co., Ltd., Ultima-Flo AP) at a 1:2 ratio, and the radioactivity of the produced [5-^3H]dUMP (RT 10.2 min) was measured using Radiomatic Flow Scintillation Analyzer (manufactured by PerkinElmer Co., Ltd., 525TR).
The inhibitory activity of the test compound was determined according to the formula shown below.

pIC50: −log10 of the molar value.

Sequence of human dUTPase (P33316 94-252): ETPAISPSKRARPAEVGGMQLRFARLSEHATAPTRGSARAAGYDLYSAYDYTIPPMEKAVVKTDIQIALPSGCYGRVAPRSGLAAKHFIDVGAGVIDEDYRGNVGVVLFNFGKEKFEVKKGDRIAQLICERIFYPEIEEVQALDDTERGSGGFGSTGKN

In the case of `O=c1ccn(COCCOC(c2ccccc2)(c2ccccc2)c2ccccc2)c(=O)[nH]1` [Comparative Example 1, reference compound], the pIC50 is 3.73. The same measure for `CN(C(CCn1ccc(=O)[nH]c1=O)C(=O)NO)S(=O)(=O)c1ccc(Oc2ccccc2)cc1` (centres unmarked) [Comparative Example 2, 4-(2,4-Dioxo-3,4-dihydropyrimidin-1(2H)-yl)-N-hydroxy-2-(N-methyl-4-phenoxyphenylsulfonamide)butanamide, reference compound]: 4.01.

`O=c1ccn(COCCCS(=O)(=O)NCc2cccc(OCC3CC3)c2)c(=O)[nH]1` [Example 1, N-(3-(cyclopropylmethoxy)benzyl)-3-((2,4-dioxo-3,4-dihydropyrimidin-1(2H)-yl)methoxy)propane-1-sulfonamide] gave a pIC50 of 6.48. This pIC50 is 2.47 log units higher than that of the compound before. Compound `C[C@@H](NS(=O)(=O)CCCOCn1ccc(=O)[nH]c1=O)c1cccc(OCC(C)(C)O)c1` [Example 2, (R)-3-((2,4-dioxo-3,4-dihydropyrimidin-1(2H)-yl)methoxy)-N-(1-(3-(2-hydroxy-2-methylpropoxy)phenyl)ethyl)propane-1-sulfonamide] gave a pIC50 of 5.73. This pIC50 is 0.75 log units lower than that of the compound before.

Regarding `CC[C@@](O)(CNS(=O)(=O)CCCOCn1ccc(=O)[nH]c1=O)c1ccc(F)c(OC2CCCC2)c1` [Example 3, (S)—N-(2-(3-(cyclopentyloxy)-4-fluorophenyl)-2-hydroxybutyl)-3-((2,4-dioxo-3,4-dihydropyrimidin-1(2H)-yl)methoxy)propane-1-sulfonamide], the negative logarithm of the IC50 (pIC50) was 6.06. Compared with the last compound, the pIC50 is 0.33 log units higher.

With `O=c1ccn(COCCCS(=O)(=O)NCc2cccc(OC3CCC3)c2)c(=O)[nH]1` [Example 4, N-(3-cyclobutoxybenzyl)-3-((2,4-dioxo-3,4-dihydropyrimidin-1(2H)-yl)methoxy)propane-1-sulfonamide], the pIC50 was 6.21.

Take `C[C@@H](NS(=O)(=O)CCCOCn1ccc(=O)[nH]c1=O)c1cccc(OC2CCCC2)c1` [Example 5, (R)—N-(1-(3-(cyclopentyloxy)phenyl)ethyl)-3-((2,4-dioxo-3,4-dihydropyrimidin-1(2H)-yl)methoxy)propane-1-sulfonamide]: the pIC50 is 7.22. Compound `C[C@@H](NS(=O)(=O)CCCOCn1ccc(=O)[nH]c1=O)c1cccc(O[C@@H]2CCOC2)c1` [Example 6, 3-((2,4-dioxo-3,4-dihydropyrimidin-1(2H)-yl)methoxy)-N—((R)-1-(3-((R)-tetrahydrofuran-3-yloxy)phenyl)ethyl)propane-1-sulfonamide] had a negative logarithm of the IC50 (pIC50) of 6.34. Compared with the last compound, the pIC50 is 0.88 log units lower.

In the case of `O=c1ccn(COCCCS(=O)(=O)NCc2ccc(F)c(OCC3CC3)c2)c(=O)[nH]1` [Example 7, N-(3-(cyclopropylmethoxy)-4-fluorobenzyl)-3-((2,4-dioxo-3,4-dihydropyrimidin-1(2H)-yl)methoxy)propane-1-sulfonamide], the negative logarithm of the IC50 (pIC50) was 6.19.

Compound `C[C@@H](NS(=O)(=O)CCCOCn1ccc(=O)[nH]c1=O)c1ccc(F)c(OCC2CC2)c1` [Example 8, (R)—N-(1-(3-(cyclopropylmethoxy)-4-fluorophenyl)ethyl)-3-((2,4-dioxo-3,4-dihydropyrimidin-1(2H)-yl)methoxy)propane-1-sulfonamide] gave a pIC50 of 7.05. The value for `CC(C)[C@@H](NS(=O)(=O)CCCOCn1ccc(=O)[nH]c1=O)c1ccc(F)c(OCC2CC2)c1` [Example 9, (R)—N-(1-(3-(cyclopropylmethoxy)-4-fluorophenyl)-2-methylpropyl)-3-((2,4-dioxo-3,4-dihydropyrimidin-1(2H)-yl)methoxy)propane-1-sulfonamide] was 7.40. For the compound `O=c1ccn(COCCCS(=O)(=O)NC(c2ccccc2)c2cccc(OCC3CC3)c2)c(=O)[nH]1` (centres unmarked) [Example 10, N-((3-(cyclopropylmethoxy)phenyl)(phenyl)methyl)-3-((2,4-dioxo-3,4-dihydropyrimidin-1(2H)-yl)methoxy)propane-1-sulfonamide], the pIC50 is 6.80. The same measure for `CC(NS(=O)(=O)CCCOCn1ccc(=O)[nH]c1=O)c1cccc(OCC2CC2)c1` (centres unmarked) [Example 11, N-(1-(3-(cyclopropylmethoxy)phenyl)ethyl)-3-((2,4-dioxo-3,4-dihydropyrimidin-1(2H)-yl)methoxy)propane-1-sulfonamide]: 6.31; for `O=c1ccn(COCCCS(=O)(=O)NCc2cccc(SCC3CC3)c2)c(=O)[nH]1` [Example 12, N-(3-(cyclopropylmethylthio)benzyl)-3-((2,4-dioxo-3,4-dihydropyrimidin-1(2H)-yl)methoxy)propane-1-sulfonamide]: 5.55.

`C[C@@H](NS(=O)(=O)CCCOCn1ccc(=O)[nH]c1=O)c1cccc(OC2CC2)c1` [Example 13, (R)—N-(1-(3-cyclopropoxyphenyl)ethyl)-3-((2,4-dioxo-3,4-dihydropyrimidin-1(2H)-yl)methoxy)propane-1-sulfonamide] gave a negative-log IC50 (pIC50) of 6.48.

`CCC(CC)(NS(=O)(=O)CCCOCn1ccc(=O)[nH]c1=O)c1cccc(OCC2CC2)c1` [Example 14, N-(3-(3-(cyclopropylmethoxy)phenyl)pentan-3-yl)-3-((2,4-dioxo-3,4-dihydropyrimidin-1(2H)-yl)methoxy)propane-1-sulfonamide]: the negative-log IC50 (pIC50) was 6.68. The same measure for `O=c1ccn(COCCCS(=O)(=O)NC(c2ccccc2)c2cccc(OC(F)(F)C(F)F)c2)c(=O)[nH]1` (centres unmarked) [Example 15, 3-((2,4-dioxo-3,4-dihydropyrimidin-1(2H)-yl)methoxy)-N-(phenyl(3-(1,1,2,2-tetrafluoroethoxy)phenyl)methyl)propane-1-sulfonamide]: 6.03; for `CC(C)COc1cccc(C(NS(=O)(=O)CCCOCn2ccc(=O)[nH]c2=O)c2ccccc2)c1` (centres unmarked) [Example 16, 3-((2,4-dioxo-3,4-dihydropyrimidin-1(2H)-yl)methoxy)-N-((3-isobutoxyphenyl)(phenyl)methyl)propane-1-sulfonamide]: 6.22; for `O=c1ccn(COCCCS(=O)(=O)NC(c2cccc(OCC3CC3)c2)c2cccc(OCC3CC3)c2)c(=O)[nH]1` [Example 17, N-(bis(3-(cyclopropylmethoxy)phenyl)methyl)-3-((2,4-dioxo-3,4-dihydropyrimidin-1(2H)-yl)methoxy)propane-1-sulfonamide]: 6.68. Compound `CC[C@H](C)COc1cccc(C(NS(=O)(=O)CCCOCn2ccc(=O)[nH]c2=O)c2ccccc2)c1` (stereo partly drawn) [Example 18, 3-((2,4-dioxo-3,4-dihydropyrimidin-1(2H)-yl)methoxy)-N-((3-((S)-2-methylbutoxy)phenyl) (phenyl)methyl)propane-1-sulfonamide] showed a pIC50 of 5.78. The value for `O=c1ccn(COCCCS(=O)(=O)NC(c2ccc(F)cc2)c2ccc(F)c(OCC3CC3)c2)c(=O)[nH]1` (centres unmarked) [Example 19, N-((3-(cyclopropylmethoxy)-4-fluorophenyl)(4-fluorophenyl)methyl)-3-((2,4-dioxo-3,4-dihydropyrimidin-1(2H)-yl)methoxy)propane-1-sulfonamide] was 6.62; that for `CCC(CC)(NS(=O)(=O)CCCOCn1ccc(=O)[nH]c1=O)c1ccc(F)c(OCC2CC2)c1` [Example 20, N-(3-(3-(cyclopropylmethoxy)-4-fluorophenyl)pentan-3-yl)-3-((2,4-dioxo-3,4-dihydropyrimidin-1(2H)-yl)methoxy)propane-1-sulfonamide] was 6.72; that for `O=c1ccn(COCCCS(=O)(=O)NCc2cccc(OC3CCCC3)c2)c(=O)[nH]1` [Example 21, N-(3-(cyclopentyloxy)benzyl)-3-((2,4-dioxo-3,4-dihydropyrimidin-1(2H)-yl)methoxy)propane-1-sulfonamide] was 6.57.

`CC[C@@H](NS(=O)(=O)CCCOCn1ccc(=O)[nH]c1=O)c1ccc(F)c(OCC2CC2)c1` [Example 22, (R)—N-(1-(3-(cyclopropylmethoxy)-4-fluorophenyl)propyl)-3-((2,4-dioxo-3,4-dihydropyrimidin-1(2H)-yl)methoxy)propane-1-sulfonamide] had a negative-log IC50 (pIC50) of 7.52.

Regarding `C[C@@H](NS(=O)(=O)CCCOCn1ccc(=O)[nH]c1=O)c1cccc(OCC2CC2)c1` [Example 23, (R)—N-(1-(3-(cyclopropylmethoxy)phenyl)ethyl)-3-((2,4-dioxo-3,4-dihydropyrimidin-1(2H)-yl)methoxy)propane-1-sulfonamide], the negative-log IC50 (pIC50) was 7.30. The value for `C[C@@H](NS(=O)(=O)CCCOCn1ccc(=O)[nH]c1=O)c1ccc(F)c(OC2CCCC2)c1` [Example 24, (R)—N-(1-(3-(cyclopentyloxy)-4-fluorophenyl)ethyl)-3-((2,4-dioxo-3,4-dihydropyrimidin-1(2H)-yl)methoxy)propane-1-sulfonamide] was 7.40.
